Experimental data from patent publication US10370339B2, “N-Methylbenzimidazoles as mIDH1 inhibitors” (BAYER PHARMA AKTIENGESELLSCHAFT, priority 2015, dated 2019).

These molecules were tested against IDH1 R132H enzyme (Homo sapiens (Human), UniProt O75874, R132H) (assay: Mutant IDH1 R132H biochemical assay). Conditions: NADPH consumption, luminescent readout; 1.5 nM enzyme, 1 μM NADPH, 250 μM α-KG, 30 minutes, 32° C.
Protocol: Mutant IDH1 R132H Biochemical Assay mIDH1 catalyzes the NADPH-dependent reduction of alpha-ketoglutarate (a-KG) to (2R)-2-hydroxyglutarate (2-HG). NADPH consumption was measured by luminescent readout.
The biochemical reactions were performed at 32° C. in 384-well plates using a reaction volume of 41 μL and the following assay buffer conditions: 50 mM Tris pH 7.5, 100 mM NaCl, 20 mM MgCl2, 0.05% BSA, 0.01% Brij, 1 μM NADPH, and 250 μM α-KG. The IDH1 R132H enzyme was used in a final concentration of 1.5 nM. Test compounds were used in a concentration range between 0.002 and 10 μM. The final DMSO concentration was 2.4%.
The reaction was incubated for 30 minutes, then 40 μL of detection mix (0.75 μg/ml Luciferase, 0.02 U/ml Oxidoreductase, 4 μg/mL FMN, 2 μL/ml decanal/ethanol, 50 mM Tris pH 7.5, 0.5% Glycerin, 0.01% Tween-20, 0.05% BSA) was added. Luminescence was measured on a luminescent reader (10 seconds measuring time, 1 second integration period, 30% sensitivity). The decrease in luminescence is proportional to mIDH1 activity. IC50 values are determined by interpolation from plots of relative luminescence versus inhibitor concentration.

IDH1 R132H enzyme, sequence (O75874 whole entry R132H): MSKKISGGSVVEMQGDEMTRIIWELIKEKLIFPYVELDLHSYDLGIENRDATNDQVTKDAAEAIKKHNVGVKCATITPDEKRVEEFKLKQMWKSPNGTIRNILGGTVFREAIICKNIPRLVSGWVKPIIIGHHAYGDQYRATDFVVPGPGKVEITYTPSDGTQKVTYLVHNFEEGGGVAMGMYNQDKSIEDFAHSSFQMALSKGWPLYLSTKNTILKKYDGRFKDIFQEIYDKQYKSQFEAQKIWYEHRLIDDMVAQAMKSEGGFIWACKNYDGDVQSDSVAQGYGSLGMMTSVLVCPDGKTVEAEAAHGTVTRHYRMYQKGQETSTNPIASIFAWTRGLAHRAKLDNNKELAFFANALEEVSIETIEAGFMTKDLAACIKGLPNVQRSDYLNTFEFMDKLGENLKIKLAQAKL

Structure (SMILES) | IC50 [nM]
COC(=O)c1ccc2c(c1)nc(Nc1ccc(C(C)C)cc1)n2[C@@H]1C[C@H](C)CC[C@H]1C(C)C [Example 2-2] | 65
COC(=O)c1ccc2c(c1)nc(Nc1ccc(OC(C)C)cc1)n2[C@@H]1C[C@H](C)CC[C@H]1C(C)C [Example 2-3] | 200
COC(=O)c1cc2nc(Nc3ccc(OC(C)C)cc3)n([C@@H]3C[C@H](C)CC[C@H]3C(C)C)c2cc1C [Example 2-6] | 220
COC(=O)c1cc2nc(Nc3ccc(OC(F)(F)F)cc3)n([C@@H]3C[C@H](C)CC[C@H]3C(C)C)c2cc1OC [Example 2-7] | 100
COC(=O)Cc1cc2nc(Nc3ccc(C(C)C)cc3)n([C@@H]3C[C@H](C)CC[C@H]3C(C)C)c2cc1OC [Example 2-17] | 68
COC(=O)Cc1cc2nc(Nc3ccc(OC(C)C)cc3)n([C@@H]3C[C@H](C)CC[C@H]3C(C)C)c2cc1OC [Example 2-18] | 120
COC(=O)CCc1ccc2c(c1)nc(Nc1ccc(C(C)C)cc1)n2[C@@H]1C[C@H](C)CC[C@H]1C(C)C [Example 2-20] | 130
COC(=O)CCc1ccc2c(c1)nc(Nc1ccc(OC(C)C)cc1)n2[C@@H]1C[C@H](C)CC[C@H]1C(C)C [Example 2-21] | 380
CC(C)[C@@H]1CC[C@@H](C)C[C@H]1n1c(Nc2ccc(OC(F)(F)F)cc2)nc2cc(C(=O)O)ccc21 [Example 2-22, 1-[(1R,2S,5R)-2-isopropyl-5-methylcyclohexyl]-2-{[4-(trifluoromethoxy)phenyl]-amino}-1H-benzimidazole-5-carboxylic acid] | 4
Cc1cc2c(cc1C(=O)O)nc(Nc1ccc(OC(F)(F)F)cc1)n2[C@@H]1C[C@H](C)CC[C@H]1C(C)C [Example 2-25] | 8
Cc1cc2c(cc1C(=O)O)nc(Nc1ccc(C(C)C)cc1)n2[C@@H]1C[C@H](C)CC[C@H]1C(C)C [Example 2-26] | 7.5
Cc1cc2c(cc1C(=O)O)nc(Nc1ccc(OC(C)C)cc1)n2[C@@H]1C[C@H](C)CC[C@H]1C(C)C [Example 2-27] | 15
COc1cc2c(cc1C(=O)O)nc(Nc1ccc(OC(F)(F)F)cc1)n2[C@@H]1C[C@H](C)CC[C@H]1C(C)C [Example 2-28] | 16
CC(C)Oc1ccc(Nc2nc3cc(CC(=O)O)ccc3n2[C@@H]2C[C@H](C)CC[C@H]2C(C)C)cc1 [Example 2-33] | 45
COc1cc2c(cc1CC(=O)O)nc(Nc1ccc(OC(F)(F)F)cc1)n2[C@@H]1C[C@H](C)CC[C@H]1C(C)C [Example 2-37] | 23
CC(C)[C@@H]1CC[C@@H](C)C[C@H]1n1c(Nc2ccc(OC(F)(F)F)cc2)nc2cc(CCC(=O)O)ccc21 [Example 2-40] | 15
COC(=O)CCc1cc2nc(Nc3ccc(OC(F)(F)F)cc3)n([C@@H]3C[C@H](C)CC[C@H]3C(C)C)c2cc1OC [Example 2-43, methyl 3-(1-[(1R,2S,5R)-2-isopropyl-5-methylcyclohexyl]-6-methoxy-2-{[4-(tri-fluoromethoxy)phenyl]amino}-1H-benzimidazol-5-yl)propanoate] | 190
COC(=O)CCc1cc2nc(Nc3ccc(OC(C)C)cc3)n([C@@H]3C[C@H](C)CC[C@H]3C(C)C)c2cc1OC [Example 2-44] | 620

The next lines start with the values.

IC50 [nM] | Structure (SMILES)
2800 | COc1cc2c(cc1CCC(=O)O)nc(Nc1ccc(OC(C)C)cc1)n2[C@@H]1C[C@H](C)CC[C@H]1C(C)C [Example 2-47]
300 | COC(=O)Cc1ccc2c(c1)nc(Nc1ccc(OC(C)C)cc1)n2[C@@H]1C[C@H](C)CC[C@H]1C(C)C [Example 2-12]
280 | COC(=O)c1cc2nc(Nc3ccc(OC(C)C)cc3)n([C@@H]3C[C@H](C)CC[C@H]3C(C)C)c2cc1OC [Example 2-9]
180 | COC(=O)CCc1cc2nc(Nc3ccc(C(C)C)cc3)n([C@@H]3C[C@H](C)CC[C@H]3C(C)C)c2cc1OC [Example 2-45]
130 | COC(=O)c1cc2nc(Nc3ccc(C(C)C)cc3)n([C@@H]3C[C@H](C)CC[C@H]3C(C)C)c2cc1OC [Example 2-8]
120 | COC(=O)c1ccc2c(c1)nc(Nc1ccc(OC(F)(F)F)cc1)n2[C@@H]1C[C@H](C)CC[C@H]1C(C)C [Example 2-1, methyl 1-[(1R,2S,5R)-2-isopropyl-5-methylcyclohexyl]-2-{[4-(trifluoromethoxy)-phenyl]amino}-1H-benzimidazole-5-carboxylate]
120 | COC(=O)Cc1ccc2c(c1)nc(Nc1ccc(OC(F)(F)F)cc1)n2[C@@H]1C[C@H](C)CC[C@H]1C(C)C [Example 2-10]
95 | COC(=O)CCc1ccc2c(c1)nc(Nc1ccc(OC(F)(F)F)cc1)n2[C@@H]1C[C@H](C)CC[C@H]1C(C)C [Example 2-19]
80 | COC(=O)Cc1ccc2c(c1)nc(Nc1ccc(C(C)C)cc1)n2[C@@H]1C[C@H](C)CC[C@H]1C(C)C [Example 2-11]
80 | COC(=O)Cc1cc2nc(Nc3ccc(OC(C)C)cc3)n([C@@H]3C[C@H](C)CC[C@H]3C(C)C)c2cc1C [Example 2-15]
70 | COC(=O)Cc1cc2nc(Nc3ccc(OC(F)(F)F)cc3)n([C@@H]3C[C@H](C)CC[C@H]3C(C)C)c2cc1OC [Example 2-16]
70 | COc1cc2c(cc1CC(=O)O)nc(Nc1ccc(OC(C)C)cc1)n2[C@@H]1C[C@H](C)CC[C@H]1C(C)C [Example 2-39]
45 | COC(=O)Cc1cc2nc(Nc3ccc(OC(F)(F)F)cc3)n([C@@H]3C[C@H](C)CC[C@H]3C(C)C)c2cc1C [Example 2-13]
40 | COC(=O)c1cc2nc(Nc3ccc(C(C)C)cc3)n([C@@H]3C[C@H](C)CC[C@H]3C(C)C)c2cc1C [Example 2-5]
35 | COC(=O)Cc1cc2nc(Nc3ccc(C(C)C)cc3)n([C@@H]3C[C@H](C)CC[C@H]3C(C)C)c2cc1C [Example 2-14]
30 | Cc1cc2c(cc1CC(=O)O)nc(Nc1ccc(OC(C)C)cc1)n2[C@@H]1C[C@H](C)CC[C@H]1C(C)C [Example 2-36]
15 | COc1cc2c(cc1CCC(=O)O)nc(Nc1ccc(OC(F)(F)F)cc1)n2[C@@H]1C[C@H](C)CC[C@H]1C(C)C [Example 2-46, 3-(1-[(1R,2S,5R)-2-isopropyl-5-methylcyclohexyl]-6-methoxy-2-{[4-(trifluoromethoxy)phenyl]amino}-1H-benzimidazol-5-yl)propanoic acid]
13 | CC(C)Oc1ccc(Nc2nc3cc(C(=O)O)ccc3n2[C@@H]2C[C@H](C)CC[C@H]2C(C)C)cc1 [Example 2-24]
13 | COc1cc2c(cc1C(=O)O)nc(Nc1ccc(C(C)C)cc1)n2[C@@H]1C[C@H](C)CC[C@H]1C(C)C [Example 2-29]
12 | COc1cc2c(cc1CC(=O)O)nc(Nc1ccc(C(C)C)cc1)n2[C@@H]1C[C@H](C)CC[C@H]1C(C)C [Example 2-38]
12 | CC(C)c1ccc(Nc2nc3cc(CCC(=O)O)ccc3n2[C@@H]2C[C@H](C)CC[C@H]2C(C)C)cc1 [Example 2-41]
12 | CC(C)Oc1ccc(Nc2nc3cc(CCC(=O)O)ccc3n2[C@@H]2C[C@H](C)CC[C@H]2C(C)C)cc1 [Example 2-42]
11 | CC(C)c1ccc(Nc2nc3cc(CC(=O)O)ccc3n2[C@@H]2C[C@H](C)CC[C@H]2C(C)C)cc1 [Example 2-32]
8.3 | Cc1cc2c(cc1CC(=O)O)nc(Nc1ccc(C(C)C)cc1)n2[C@@H]1C[C@H](C)CC[C@H]1C(C)C [Example 2-35]
6.3 | CC(C)c1ccc(Nc2nc3cc(C(=O)O)ccc3n2[C@@H]2C[C@H](C)CC[C@H]2C(C)C)cc1 [Example 2-23]
6.3 | Cc1cc2c(cc1CC(=O)O)nc(Nc1ccc(OC(F)(F)F)cc1)n2[C@@H]1C[C@H](C)CC[C@H]1C(C)C [Example 2-34]

What follows are molecules tested against Mutant IDH1 (LN229 R132H cells) (Homo sapiens (Human), UniProt O75874, R132H) (assay: Mutant IDH1 cellular assay (2-HG levels in medium of LN229 R132H cells)). Conditions: 2-HG production in LN229 R132H cells, 24 hours incubation, fluorescence readout.
Format: cell-based
Protocol: Levels of (2R)-2-hydroxyglutarate (2HG) were measured in medium of a cell line with overexpression of mutated isocitrate dehydrogenase (mIDH) protein. mIDH catalyzes the NADPH-dependent reduction of alpha-ketoglutarate to 2-HG. Cells (LN229 R132H, Mohrenz et al., Apoptosis (2013) 18:1416-1425) were grown in DMEM containing 10% FCS. They were harvested by trypsin and seeded into 96-well plates. Cells were incubated overnight at 37° C. in 5% CO2. The next day test compounds were added to each cell well. The final concentration of DMSO was 0.1% and DMSO controls were included. The plates were then placed in an incubator for 24 hours.
2-HG was measured according to Balss et al. (Acta Neuropathol (2012) 124: 883-891). Briefly, HClO4 was added to each well and the plates were centrifuged. Aliquots are removed and incubated with hydroxyglutarate dehydrogenase (HGDH), diaphorase, NAD+, and resazurin. The conversion of resazurin to resorufin was detected by fluorescence spectroscopy at Ex 540 nm Em 600 nm. The increase in fluorescence is proportional to 2-HG production. IC50 values are determined by interpolation from plots of relative fluorescence vs inhibitor concentration.

Mutant IDH1 (LN229 R132H cells), sequence (O75874 whole entry R132H): as above

IC50 [nM] | Structure (SMILES)
38 | COc1cc2c(cc1C(=O)O)nc(Nc1ccc(OC(F)(F)F)cc1)n2[C@@H]1C[C@H](C)CC[C@H]1C(C)C [Example 2-28]
40 | COc1cc2c(cc1C(=O)O)nc(Nc1ccc(C(C)C)cc1)n2[C@@H]1C[C@H](C)CC[C@H]1C(C)C [Example 2-29]
84 | COc1cc2c(cc1C(=O)O)nc(Nc1ccc(OC(C)C)cc1)n2[C@@H]1C[C@H](C)CC[C@H]1C(C)C [Example 2-30]
